Measured values from PubChem BioAssay AID192 (DTP/NCI, 2004).
Several values for one entry are separate records, joined by “and”; a condition that tells them apart may be missing. Equal entries are not always repeated. Inconclusive results and toxic doses are left out. How the source made its calls: active means survival T/C of 150% or more; inactive means T/C below 125% in these data. Peptide text beside a SMILES is read from it. * marks the point of attachment. Cbz = O=C(OCc1ccccc1)*

System: BDF1 mice, B16 melanoma ip, median survival T/C
Assay: NCI In Vivo Anticancer Drug Screen. Data for tumor model B16 Melanoma (intraperitoneal) in B6D2F1 (BDF1) mice
Settings: endpoint: median survival time, higher = longer survival
How it was run: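 Values are ratios of treated (T) to vehicle-control (C) measurements of survival or tumor size in tumor-bearing mice.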

[1] = dose: 12.5 mg/kg/injection, schedule: Q01DX009 (ip), vehicle: Klucel (hydroxypropylcellulose) (HPC)
[2] = dose: 100.0 mg/kg/injection, schedule: Q01DX009 (ip), vehicle: saline with Tween-80
[3] = dose: 400.0 mg/kg/injection, schedule: Q01DX009 (ip), vehicle: saline with Tween-80
[4] = dose: 3.0 mg/kg/injection, schedule: Q01DX009 (ip), vehicle: Klucel (hydroxypropylcellulose) (HPC)
[5] = dose: 6.0 mg/kg/injection, schedule: Q01DX009 (ip), vehicle: Klucel (hydroxypropylcellulose) (HPC)
[6] = dose: 12.0 mg/kg/injection, schedule: Q01DX009 (ip), vehicle: Klucel (hydroxypropylcellulose) (HPC)
[7] = dose: 50.0 mg/kg/injection, schedule: Q01DX009 (ip), vehicle: saline with Tween-80
[8] = dose: 6.25 mg/kg/injection, schedule: Q01DX009 (ip), vehicle: saline
[9] = dose: 25.0 mg/kg/injection, schedule: Q01DX009 (ip), vehicle: saline
[10] = dose: 100.0 mg/kg/injection, schedule: Q01DX009 (ip), vehicle: Klucel (hydroxypropylcellulose) (HPC)
[11] = dose: 200.0 mg/kg/injection, schedule: Q01DX009 (ip), vehicle: Klucel (hydroxypropylcellulose) (HPC)
[12] = dose: 100.0 mg/kg/injection, schedule: Q01DX009 (ip), vehicle: saline
[13] = dose: 1.56 mg/kg/injection, schedule: Q01DX009 (ip), vehicle: saline with Tween-80
[14] = dose: 12.5 mg/kg/injection, schedule: Q01DX009 (ip), vehicle: saline with Tween-80
[15] = dose: 25.0 mg/kg/injection, schedule: Q01DX009 (ip), vehicle: saline with Tween-80

Measured: T/C

CCCCCCCCOC(=O)Nc1ccc(OCC)cc1
inactive: dose: 1.5 mg/kg/injection, schedule: Q01DX009 (ip), vehicle: saline with Tween-80 107 % of control | dose: 3.0 mg/kg/injection, schedule: Q01DX009 (ip), vehicle: saline with Tween-80 96 % of control | dose: 6.0 mg/kg/injection, schedule: Q01DX009 (ip), vehicle: saline with Tween-80 96 % of control

N#CCCc1ccc(O)cc1
inactive: dose: 50.0 mg/kg/injection, schedule: Q01DX009 (ip), vehicle: gum acacia 100 % of control | dose: 50.0 mg/kg/injection, schedule: Q04DX003 (ip), vehicle: gum acacia 100 % of control | dose: 100.0 mg/kg/injection, schedule: Q01DX009 (ip), vehicle: gum acacia 89 % of control | dose: 100.0 mg/kg/injection, schedule: Q04DX003 (ip), vehicle: gum acacia 106 % of control | dose: 200.0 mg/kg/injection, schedule: Q01DX009 (ip), vehicle: gum acacia 91 % of control | dose: 200.0 mg/kg/injection, schedule: Q04DX003 (ip), vehicle: gum acacia 95 % of control

Cc1cccc(Nc2c(N)nc(N)nc2N)c1
inactive: [1] 101 % of control | dose: 25.0 mg/kg/injection, schedule: Q01DX009 (ip), vehicle: Klucel (hydroxypropylcellulose) (HPC) 104 % of control | dose: 50.0 mg/kg/injection, schedule: Q01DX009 (ip), vehicle: Klucel (hydroxypropylcellulose) (HPC) 106 % of control

Cc1cc(=O)[nH]c(Nc2ccccc2)n1
inactive: [2] 105 % of control | dose: 200.0 mg/kg/injection, schedule: Q01DX009 (ip), vehicle: saline with Tween-80 92 % of control | [3] 102 % of control

C=C1CC(OC(=O)C(C)(O)CCl)C2C(=C)C(=O)OC2C2C1CC(O)C2(O)CCl (stereo not drawn)
inactive: [4] 104 % of control | [5] 101 % of control | [6] 101 % of control | dose: 24.0 mg/kg/injection, schedule: Q01DX009 (ip), vehicle: Klucel (hydroxypropylcellulose) (HPC) 93 % of control

CCCN(C)/N=N/c1nc[nH]c1C(N)=O
inactive: [7] 112 % of control

O=NN(CCCl)C(=O)NCC1CCC(CNC(=O)N(CCCl)N=O)CC1 (stereo not drawn)
inactive: dose: 17.0 mg/kg/injection, schedule: Q01DX009 (ip), vehicle: saline 122 % of control
active: dose: 33.0 mg/kg/injection, schedule: Q01DX009 (ip), vehicle: saline 152 % of control | dose: 65.0 mg/kg/injection, schedule: Q01DX009 (ip), vehicle: saline 184 % of control | dose: 130.0 mg/kg/injection, schedule: Q01DX009 (ip), vehicle: saline 193 % of control

CCCC[P+](c1ccccc1)(c1ccccc1)c1ccccc1
inactive: [8] 90 % of control | [9] 95 % of control

N#Cc1nc2ccccc2nc1C#N
inactive: [1] 110 % of control | dose: 12.5 mg/kg/injection, schedule: Q04DX003 (ip), vehicle: Klucel (hydroxypropylcellulose) (HPC) 97 % of control | dose: 25.0 mg/kg/injection, schedule: Q04DX003 (ip), vehicle: Klucel (hydroxypropylcellulose) (HPC) 102 % of control | dose: 50.0 mg/kg/injection, schedule: Q04DX003 (ip), vehicle: Klucel (hydroxypropylcellulose) (HPC) 95 % of control

O=C(CCCc1ccc(N(CCCl)CCCl)cc1)Nc1ncccn1
inactive: [4] 104 % of control | [5] 109 % of control | [6] 109 % of control

CCOC(=O)/C=C/C(=O)NCC(N)C(=O)O (stereo not drawn)
inactive: dose: 6.25 mg/kg/injection, schedule: Q01DX009 (ip), vehicle: distilled water + Tween-80 96 % of control | dose: 12.5 mg/kg/injection, schedule: Q01DX009 (ip), vehicle: distilled water + Tween-80 88 % of control | dose: 25.0 mg/kg/injection, schedule: Q01DX009 (ip), vehicle: distilled water + Tween-80 104 % of control | dose: 50.0 mg/kg/injection, schedule: Q01DX009 (ip), vehicle: distilled water + Tween-80 88 % of control | dose: 100.0 mg/kg/injection, schedule: Q01DX009 (ip), vehicle: distilled water + Tween-80 98 % of control

COc1cccc(N2C(=O)CSC2=S)c1
inactive: [10] 93 % of control | [11] 90 % of control

CC1NCCOC1c1ccccc1 (stereo not drawn)
inactive: dose: 3.12 mg/kg/injection, schedule: Q01DX009 (ip), vehicle: saline 100 % of control | [8] 97 % of control | dose: 12.5 mg/kg/injection, schedule: Q01DX009 (ip), vehicle: saline 104 % of control | [9] 90 % of control and 124 % of control | dose: 50.0 mg/kg/injection, schedule: Q01DX009 (ip), vehicle: saline 90 % of control and 113 % of control | [12] 111 % of control

CC1(C)COC(c2ccccc2)=N1
inactive: [12] 123 % of control | dose: 200.0 mg/kg/injection, schedule: Q01DX009 (ip), vehicle: saline 115 % of control

C=COCC(C)C (tested in a mixture with another compound)
inactive: dose: 0.39 mg/kg/injection, schedule: Q01DX009 (ip), vehicle: saline 108 % of control | dose: 0.78 mg/kg/injection, schedule: Q01DX009 (ip), vehicle: saline 100 % of control | [13] 88 % of control | dose: 1.56 mg/kg/injection, schedule: Q01DX009 (ip), vehicle: saline 88 % of control and 94 % of control | dose: 3.13 mg/kg/injection, schedule: Q01DX009 (ip), vehicle: saline 89 % of control | [8] 86 % of control

CSCCC(NC(=O)C(Cc1ccccc1)NC(=O)OCc1ccccc1)C(=O)O (stereo not drawn) (Cbz-Phe-Met-OH; configuration not given here)
inactive: [7] 97 % of control | [2] 93 % of control

COc1cc(NC(=O)CN(CCCl)CCCl)cc(OC)c1OC
active: [2] 170 % of control | [3] 161 % of control

CCCCCCCCCCCCCCP(I)(N(C)C)(N(C)C)N(C)C
inactive: dose: 0.1 mg/kg/injection, schedule: Q01DX009 (ip), vehicle: saline with Tween-80 90 % of control | dose: 0.2 mg/kg/injection, schedule: Q01DX009 (ip), vehicle: saline with Tween-80 94 % of control | dose: 0.38 mg/kg/injection, schedule: Q01DX009 (ip), vehicle: saline with Tween-80 88 % of control | dose: 0.4 mg/kg/injection, schedule: Q01DX009 (ip), vehicle: saline with Tween-80 93 % of control

C[Si]1(C)CCCSC1
inactive: [14] 98 % of control | [15] 98 % of control | [7] 91 % of control

NC(=S)N/N=C/c1ccc(OC(F)(F)F)cn1
inactive: [13] 92 % of control | dose: 3.13 mg/kg/injection, schedule: Q01DX009 (ip), vehicle: saline with Tween-80 94 % of control | dose: 6.25 mg/kg/injection, schedule: Q01DX009 (ip), vehicle: saline with Tween-80 89 % of control | [14] 95 % of control

COC1=C2CC(C)CC(OC)C(O)C(C)/C=C(\C)C(OC(N)=O)C(OC)/C=C\C=C(/C)C(=O)NC(=C(/C=N/N3CCOCC3)C1=O)C2=O (stereo not drawn)
inactive: dose: 12.5 mg/kg/injection, schedule: Q01DX005 (ip), vehicle: other 106 % of control | dose: 25.0 mg/kg/injection, schedule: Q01DX005 (ip), vehicle: other 97 % of control | dose: 100.0 mg/kg/injection, schedule: Q01DX005 (ip), vehicle: other 106 % of control | dose: 200.0 mg/kg/injection, schedule: Q01DX005 (ip), vehicle: other 89 % of control

Cc1c(NC=O)c(=O)n(-c2ccccc2)n1C
inactive: [10] 100 % of control | [11] 100 % of control | dose: 400.0 mg/kg/injection, schedule: Q01DX009 (ip), vehicle: Klucel (hydroxypropylcellulose) (HPC) 96 % of control

Cc1ccc(NC(=O)Nc2cccc(C(F)(F)F)c2)cc1NC(=O)Nc1cccc(C(F)(F)F)c1
inactive: [15] 103 % of control | [7] 91 % of control | [2] 96 % of control

CC(=O)OCC12CCC(C)=CC1OC1C(OS(C)(=O)=O)C(=O)C2(C)C12CO2 (stereo not drawn)
inactive: dose: 0.5 mg/kg/injection, schedule: Q01DX009 (ip), vehicle: saline 101 % of control | dose: 1.0 mg/kg/injection, schedule: Q01DX009 (ip), vehicle: saline 95 % of control | dose: 2.0 mg/kg/injection, schedule: Q01DX009 (ip), vehicle: saline 104 % of control | dose: 4.0 mg/kg/injection, schedule: Q01DX009 (ip), vehicle: saline 88 % of control
